# According to patent US7041812B2, “Labeled nucleoside polyphosphates” (Amersham Biosciences Corp, priority 2001, dated 2006):
# Key:
# [1] = test system: cloned DNA polymerase I (genetically engineered to eliminate 3′-5′ exonuclease activity, 5′-3′ exonuclease activity and discrimination against …); experiment: Rates of incorporation of dTPn-DDAO (n=3 or 4) by DNA polymerase; type: biochemical; conditions: 1 μM nucleotide, 100 nM primer annealed to template, shrimp alkaline phosphatase, 23° C., FIG. 2
# Description: (§1) Reactions were assembled at room temperature (23° C.) using the deoxynucleotides of Example (1–5). Reactions contained primer template combinations having a single oligonucleotide primer (represented by SEQ ID NO: 1) annealed to an oligonucleotide template corresponding to SEQ ID NO: 2.
# (§2) Reaction conditions: A 70 μl reaction containing 50 mM Tris, pH 8.0, 5% glycerol, 5 mM MgCl2, 0.01% tween-20, 0.25 units shrimp alkaline phosphatase, 100 nM primer annealed to template, and 1 μM ddTPn-DDAO was assembled in a quartz fluorescence ultra-microcuvet in a LS-55 Luminescence Spectrometer (Perkin Elmer), operated in time drive mode. Excitation and emission wavelengths are 620 nm and 655 nm respectively. Slit widths were […] for excitation slits, 15 nm for emission slits. The reaction was initiated by the addition of 0.35 μl (11 units) of a cloned DNA polymerase I (genetically engineered to eliminate 3′-5′ exonuclease activity, 5′-3′ exonuclease activity and discrimination against dideoxynucleotides) or MMLV reverse transcriptase, and 0.25 mM MnCl2.
# [2] = target: T1, MMLV reverse transcriptase (Moloney murine leukemia virus, UniProt P03355); experiment: Rates of incorporation of dTPn-DDAO (n=3 or 4) by reverse transcriptase; type: biochemical; conditions: 1 μM nucleotide, 100 nM primer annealed to template, shrimp alkaline phosphatase, 23° C., FIG. 2
# T1 construct: MMLV reverse transcriptase
# Description: as §1, §2
compound,measurement,setting,value
"Cc1cn([C@H]2CC(O)[C@@H](COP(=O)(O)OP(=O)(O)OP(=O)(O)OP(=O)(O)Oc3ccc4c(c3)C(C)(C)C3=C(Cl)C(=O)C(Cl)=CC3=N4)O2)c(=O)[nH]c1=O (some centres unmarked) [dT4P-DDAO, δ-9H(1,3-dichloro-9,9-dimethylacridin-2-one-7-yl)-deoxythymidine-5′-tetraphosphate]",rate of incorporation,[1],significantly higher than that of dT3P-DDAO
same,rate of incorporation,[2],significantly higher than that of dT3P-DDAO
